Consider seven compounds from ChEMBL document CHEMBL4480416, “Inducing Secondary Metabolite Production by Co-culture of the Endophytic Fungus Phoma sp. and the Symbiotic Fungus Armillaria sp” (2019).

One test concerns Escherichia coli. The test is described as follows: Antimicrobial activity against Escherichia coli at 0.5 to 256 ug/ml after 24 hrs by two-fold serial micro dilution method. It is filed as functional.
Another test has as its system Staphylococcus aureus. The test is described as follows: Antimicrobial activity against Staphylococcus aureus at 0.5 to 256 ug/ml after 24 hrs by two-fold serial micro dilution method. It counts as functional.
A further test deals with Candida albicans. The test is described as follows: Antifungal activity against Candida albicans at 0.5 to 256 ug/ml after 4 days by two-fold serial micro dilution method. It counts as functional, organism-based.
The subject of the next test is HL-60. Kind of test: Cytotoxicity against human HL60 cells assessed as reduction in cell viability at 40 uM after 48 hrs by MTS assay. It is filed as functional, cell-based. For orientation: Formazan colour is commonly taken as a measure of viable cells.
The next test deals with Bacillus subtilis. Kind of test: Antimicrobial activity against Bacillus subtilis at 0.5 to 256 ug/ml after 24 hrs by two-fold serial micro dilution method. It counts as functional.
Another test deals with A549. Kind of test: Cytotoxicity against human A549 cells assessed as reduction in cell viability at 40 uM after 48 hrs by MTS assay. It is filed as functional, cell-based.
Another test has as its system SMMC-7721. Kind of test: Cytotoxicity against human SMMC7721 cells assessed as reduction in cell viability at 40 uM after 48 hrs by MTS assay. It counts as functional, cell-based.
Another test relates to SW480. Kind of test: Cytotoxicity against human SW480 cells assessed as reduction in cell viability at 40 uM after 48 hrs by MTS assay. It is filed as functional, cell-based.
In another test the test system is MCF7. The test is described as follows: Cytotoxicity against human MCF7 cells assessed as reduction in cell viability at 40 uM after 48 hrs by MTS assay. It is filed as functional, cell-based.

Converted amounts (≈) assume the structure as drawn. The source made the active and inactive calls.

`CCC[C@@H](O)[C@@H]1Oc2ccccc2[C@@H]1O`: the outcome in the test with Escherichia coli, in the test on Staphylococcus aureus, in the test with Candida albicans, in the test with HL-60, with Bacillus subtilis and in the test with A549 was inactive. For the same compound, the result with SMMC-7721, with SW480 and with MCF7 was inactive.

Take `CCC[C@H](O)C/C=C/[C@@H](O)CCCC(=O)OC`: the outcome in the test with Escherichia coli, in the test with Staphylococcus aureus, in the test on Candida albicans, in the test with HL-60, in the test on Bacillus subtilis and in the test on A549 was inactive. Further, the result in the test on SMMC-7721, in the test with SW480 and in the test with MCF7 was inactive.

As to `CCC[C@H](O)C/C=C/[C@@H](O)CCCC(=O)OCCCCCNC(C)=O`, the result with Escherichia coli, with Staphylococcus aureus, in the test on Candida albicans, with HL-60, in the test with Bacillus subtilis and in the test on A549 was inactive. Also, the outcome with SMMC-7721, in the test on SW480 and in the test on MCF7 was inactive.

`CCC[C@H](O)C/C=C/[C@@H](O)CCCC(=O)OC[C@@H](O)CO`: the result with Escherichia coli, with Staphylococcus aureus, in the test with Candida albicans, in the test on HL-60, in the test with Bacillus subtilis and in the test with A549 was inactive. The outcome with SMMC-7721, with SW480 and with MCF7 was inactive.

As a reminder, the MIC is the smallest concentration in the dilution series that meets the test's criterion for growth inhibition. Read a high MIC as a need for much substance. On to `NC[C@H]1O[C@H](O[C@H]2[C@H](O)[C@@H](O[C@H]3O[C@H](CO)[C@@H](O)[C@H](N)[C@H]3O)[C@H](N)C[C@@H]2N)[C@H](O)[C@@H](O)[C@@H]1O` [KANAMYCIN], for which the figures for the minimal inhibitory concentration (MIC) in the test on Escherichia coli, in the test on Staphylococcus aureus and with Bacillus subtilis were 8 µg/mL (≈ 16.5 µM), 4 µg/mL (≈ 8.26 µM) and 4 µg/mL (≈ 8.26 µM), respectively.

As to `CCCC[C@@H](O)[C@H](O)c1ccccc1O`, the result with Escherichia coli, in the test on Staphylococcus aureus, in the test with Candida albicans, in the test on HL-60, with Bacillus subtilis and with A549 was inactive. The result in the test with SMMC-7721, in the test on SW480 and in the test with MCF7 was inactive.

As for NYSTATIN, the MIC with Candida albicans came out at 4 µg/mL.
